This note sets out measurements from US20180028507A1, “3-CARBAMOYLPHENYL-4-CARBOXAMIDE AND ISOPHTALAMIDE DERIVATIVES AS INHIBITORS OF THE WNT SIGNALLING PATHWAY” (Bayer Pharma Aktiengesellschaft, priority 2015, published 2018).

For test [1], the system named is constitutive active colorectal cancer cell (CRC) Wnt pathway. The test is described as follows: HCT116 TOPFlash cellular reporter assay (Super TopFlash vector, luciferase). It counts as cell-based. The following applies: Homo sapiens, HCT-116; HCT116 Super TopFlash reporter cells, 36 hours incubation, dilution series 50 μM to 15 nM, luciferase expression. The method, then: In order to discover and characterize small molecules which inhibit the constitutive active colorectal cancer cell (CRC) Wnt pathway, a cellular reporter assay was employed. The corresponding assay cell was generated by transfection of the colorectal cancer cell line HCT116 (ATCC, #CCL-247) with the Super TopFlash vector (Morin, Science 275, 1997, 1787-1790; Molenaar et al., Cell 86 (3), 1996, 391-399). The HCT116 cell line is cultivated at 37° C. and 5% CO2 in DMEM/F-12 (Life Technologies, #11320-074), supplemented with 2 mM glutamine, 20 mM HEPES, 1.4 mM pyruvate, 0.15% Na-bicarbonate and 10% foetal bovine serum (GIBCO, #10270), this cancer cell line is pathophysiological relevant since it carries a deletion of position S45 in the β-catenin gene, leading to constitutive active Wnt signaling. Stable transfectants were generated by cotransfection with pcDNA3 and selection of stable transfected cells with 1 mg/ml G418.
(§1) In preparation of the assay, the two cell lines were plated 24 hours before at 10000 cells per well of a 384 micro titre plate (MTP) in 30 μL growth medium. Selective inhibitory activity for small molecules on the mutated Wnt pathway was determined after parallel incubation of both (TOP and FOP) HCT116 reporter cell lines with a compound dilution series from 50 μM to 15 nM in steps of 3.16-fold dilutions in CAFTY buffer (130 mM NaCl, 5 mM KCl, 20 mM HEPES, 1 mM MgCl2, 5 mM NaHCO3, pH 7.4) containing 2 mM Ca^2+ and 0.01% BSA. The compounds were thereby serially prediluted in 100% DMSO and thereafter in addition 50 fold into the CAFTY compound dilution buffer (described above). From this dilution 10 μL were added to the cells in 30 μL growth medium and incubated for 36 hours at 37° C. and 5% CO2.

The subject of test [2] is HCT116 cells cotransfected with the FOP control vector (non-functional TCF elements). Kind of test: HCT116 FOPFlash control reporter assay (FOP control vector, luciferase). It counts as cell-based. As to conditions: Homo sapiens, HCT-116, 36 hours incubation, dilution series 50 μM to 15 nM, luciferase expression. The method, then: In a parallel approach, HCT116 cells were cotransfected with the FOP control vector and pcDNA3. The FOP vector is identical to the TOP construct, but it contains instead of functional TCF elements a randomized, non-functional sequence. For this transfection a stable transfected cell line was generated as well.
as §1

Structures are written as SMILES.

`COc1ccc(NC(=O)c2ccc(-c3ccccc3)cc2)cc1C(=O)Nc1ccnc(C)c1` [Example 3, N-{4-methoxy-3-[(2-methylpyridin-4-yl)carbamoyl]phenyl}biphenyl-4-carboxamide]: the half-inhibitory concentration (IC50) in test [1] was 0.0917 µM; in test [2], 28 µM.

As to `Cc1cc(NC(=O)c2cc(C(=O)Nc3ccc(-c4ccccc4F)nc3)ccc2OC(F)(F)F)ccn1` [Example 59, N^1-[6-(2-fluorophenyl)pyridin-3-yl]-N^3-(2-methylpyridin-4-yl)-4-(trifluoromethoxy) isophthalamide], the figures for the IC50 in test [1] and in test [2] were 1.7 µM and 5.5 µM, respectively.

Turning to `O=C(Nc1ccc(-c2cccnc2)cn1)c1ccc(OC(F)(F)F)c(C(=O)NCc2cccnc2)c1` [Example 30, N^1-(3,3′-bipyridin-6-yl)-N^3-(pyridin-3-ylmethyl)-4-(trifluoromethoxy)isophthalamide], the values for the IC50 in test [1] and in test [2] were 0.42 µM and 31.5 µM, respectively.

As to `COc1ccc(NC(=O)c2ccc(-c3ccccc3)cc2)cc1C(=O)Nc1ccncc1Cl` [Example 9, N-{3-[(3-chloropyridin-4-yl)carbamoyl]-4-methoxyphenyl}biphenyl-4-carboxamide], the IC50 is 0.149 µM in test [1] and not below 50 µM in test [2].

With `COc1ccc(NC(=O)c2ccc(-c3ccccc3)cc2)cc1C(=O)NCc1ccccn1` [Example 32, N-{4-methoxy-3-[(pyridin-2-ylmethyl)carbamoyl]phenyl} biphenyl-4-carboxamide], the IC50 in test [1] was 1.33 µM; in test [2], not below 50 µM.

Turning to `COc1ccc(NC(=O)c2ccc(-c3ccccc3)cc2)cc1C(=O)NCc1cccc(C)n1` [Example 34, N-(4-methoxy-3-{[(6-methylpyridin-2-yl)methyl]carbamoyl}phenyl) biphenyl-4-carboxamide], the IC50 was 3.65 µM in test [1] and not below 50 µM in test [2].

As for `O=C(Nc1ccc(-c2ccccc2)cc1)c1ccc(OC(F)(F)F)c(C(=O)Nc2cccnc2)c1` [Example 45, N^1-(biphenyl-4-yl)-N^3-(pyridin-3-yl)-4-(trifluoromethoxy) isophthalamide], the IC50 in test [1] is 2.6 µM; in test [2], not below 50 µM.

In the case of `O=C(Nc1ccc(-c2ccccc2F)nc1)c1ccc(OC(F)(F)F)c(C(=O)Nc2ccncc2)c1` [Example 17, N^1-[6-(2-fluorophenyl)pyridin-3-yl]-N^3-(pyridin-4-yl)-4-(trifluoromethoxy)isophthalamide], the IC50 in test [1] was 0.675 µM; in test [2] it was not below 50 µM.

Regarding `COc1ccc(NC(=O)c2ccc(-c3ccccc3)cc2)cc1C(=O)Nc1ccncc1` [Example 1, N-[4-methoxy-3-(pyridin-4-ylcarbamoyl)phenyl]biphenyl-4-carboxamide], the half-maximal inhibitory concentration (IC50) came out at 0.483 µM in test [1] and 35 µM in test [2].

Turning to `COc1ccc(NC(=O)c2ccc(-c3ccccc3)cc2)cc1C(=O)NCc1cccnc1` [Example 37, N-{4-methoxy-3-[(pyridin-3-ylmethyl)carbamoyl]phenyl} biphenyl-4-carboxamide], the values for the IC50 in test [1] and in test [2] were 1.8 µM and 25 µM, respectively.

With `Cc1ncccc1NC(=O)c1cc(C(=O)Nc2ccc(-c3ccccc3)cc2)ccc1OC(F)(F)F` [Example 40, N^1-(biphenyl-4-yl)-N^3-(2-methylpyridin-3-yl)-4-(trifluoromethoxy) isophthalamide], the half-inhibitory concentration (IC50) in test [1] is 2.25 µM; in test [2], not below 50 µM.

For `CC(C)(C)OC(=O)Nc1ccc(CNC(=O)c2cc(C(=O)Nc3ccc(-c4ccccc4F)nc3)ccc2OC(F)(F)F)cn1` [Example 48, tert-butyl [5-({[5-{[6-(2-fluorophenyl)pyridin-3-yl]carbamoyl}-2-(trifluoromethoxy)benzoyl]amino}methyl)pyridin-2-yl]carbamate], the concentration for half-maximal inhibition (IC50) in test [1] is 2.05 µM; in test [2], 37 µM.

Turning to `COc1ccc(C(=O)Nc2ccc(-c3ccccc3)cc2)cc1C(=O)NCc1ccc(NC(=O)OC(C)(C)C)nc1` [Example 54, tert-butyl [5-({[5-(biphenyl-4-ylcarbamoyl)-2-methoxybenzoyl]amino}methyl)pyridin-2-yl]carbamate], the IC50 is 3.2 µM in test [1] and 16 µM in test [2].

Consider `O=C(Nc1ccc(-c2ccccc2F)nc1)c1ccc(OC(F)(F)F)c(C(=O)NCc2cccnc2)c1` [Example 18, N^1-[6-(2-fluorophenyl)pyridin-3-yl]-N^3-(pyridin-3-ylmethyl)-4-(trifluoromethoxy)isophthalamide], for which the half-maximal inhibitory concentration (IC50) worked out at 0.95 µM in test [1] and 18.5 µM in test [2].

Turning to `COc1cc(NC(=O)c2cc(C(=O)Nc3ccc(-c4ccccc4F)nc3)ccc2OC)ccn1` [Example 44, N^1-[6-(2-fluorophenyl)pyridin-3-yl]-4-methoxy-N^3-(2-methoxypyridin-4-yl)isophthalamide], the values for the half-inhibitory concentration (IC50) in test [1] and in test [2] were 2.82 µM and not below 50 µM, respectively.

For the compound `COc1ccc(C(=O)Nc2ccc(-c3ccccc3)cc2)cc1C(=O)Nc1ccncc1Cl` [Example 15, N^1-(biphenyl-4-yl)-N^3-(3-chloropyridin-4-yl)-4-methoxyisophthalamide], the IC50 in test [1] was 0.9 µM; in test [2], not below 50 µM.

As for `O=C(Nc1ccc(-c2ccccc2)cc1)c1ccc(OC(F)(F)F)c(C(=O)NCc2ccccn2)c1` [Example 7, N^1-(biphenyl-4-yl)-N^3-(pyridin-2-ylmethyl)-4-(trifluoromethoxy)isophthalamide], the IC50 in test [1] is 0.359 µM; in test [2] it was not below 50 µM.

On to `Cc1ccc(C(=O)Nc2ccc(-c3ccccc3)cc2)cc1C(=O)Nc1ccnc(F)c1` [Example 43, N^1-(biphenyl-4-yl)-N^3-(2-fluoropyridin-4-yl)-4-methylisophthalamide], for which the figures for the half-maximal inhibitory concentration (IC50) in test [1] and in test [2] were 1.37 µM and not below 50 µM, respectively.

With `CCc1cc(NC(=O)c2cc(NC(=O)c3ccc(-c4ccccc4)cc3)ccc2OC)ccn1` [Example 36, N-{3-[(2-ethylpyridin-4-yl)carbamoyl]-4-methoxyphenyl}biphenyl-4-carboxamide], the IC50 came out at 1.43 µM in test [1] and 29 µM in test [2].

For `CCOCCCNC(=O)c1cc(NC(=O)c2ccc(-c3ccccc3)cc2)ccc1OC` [Example 5, N-{3-[(3-ethoxypropyl)carbamoyl]-4-methoxyphenyl}biphenyl-4-carboxamide], the half-maximal inhibitory concentration (IC50) in test [1] turned out to be 0.608 µM; in test [2] it was 31 µM.

In the case of `COc1ccc(C(=O)Nc2ccc(-c3ccccc3)cc2)cc1C(=O)Nc1cccnc1` [Example 55, N^1-(biphenyl-4-yl)-4-methoxy-N^3-(pyridin-3-yl)isophthalamide], the results for the half-inhibitory concentration (IC50) in test [1] and in test [2] were 4.9 µM and 23 µM, respectively.

Consider `COc1ccc(C(=O)Nc2ccc(-c3ccccc3)cc2)cc1C(=O)Nc1ccnc(C)c1` [Example 12, N^1-(biphenyl-4-yl)-4-methoxy-N^3-(2-methylpyridin-4-yl)isophthalamide], for which the IC50 in test [1] worked out at 0.635 µM; in test [2], 13.5 µM.
